Laboratory results from article PMC10824102, “Identification of small molecule inhibitors of G3BP-driven stress granule formation” (The Journal of Cell Biology, 2024).
pIC50: −log10 of the molar value.

Legend:
[1] = biological target: T1, co-condensation of RNA, G3BP1, and caprin 1 (Homo sapiens, UniProt Q13283); assay: In vitro LLPS, three-component system (G3BP1, caprin 1, RNA); assay type: biochemical; details: for IC50, inhibition of G3BP1-GFP in vitro phase separation / LogIC50, inhibition of G3BP1-GFP in vitro phase separation / pIC50: 1.5 μM G3BP1, 1.5 μM caprin 1, 20 ng/μl total RNA; for pIC50: read-out: IC50, inhibition of G3BP1-GFP in vitro phase separation; for co-condensation of caprin 1, G3BP1, and RNA: result in words; for HillSlope, inhibition of G3BP1-GFP in vitro phase separation: slope at the steepest part of the curve; for Bottom (lowest value of curve), percent inhibition of in vitro phase separation / Top (highest value of curve), percent inhibition of in vitro phase separation: three-component system
T1 construct: made in house; host or cells: E. coli BL21 (DE3)
T1 sequence (Q13283 whole entry): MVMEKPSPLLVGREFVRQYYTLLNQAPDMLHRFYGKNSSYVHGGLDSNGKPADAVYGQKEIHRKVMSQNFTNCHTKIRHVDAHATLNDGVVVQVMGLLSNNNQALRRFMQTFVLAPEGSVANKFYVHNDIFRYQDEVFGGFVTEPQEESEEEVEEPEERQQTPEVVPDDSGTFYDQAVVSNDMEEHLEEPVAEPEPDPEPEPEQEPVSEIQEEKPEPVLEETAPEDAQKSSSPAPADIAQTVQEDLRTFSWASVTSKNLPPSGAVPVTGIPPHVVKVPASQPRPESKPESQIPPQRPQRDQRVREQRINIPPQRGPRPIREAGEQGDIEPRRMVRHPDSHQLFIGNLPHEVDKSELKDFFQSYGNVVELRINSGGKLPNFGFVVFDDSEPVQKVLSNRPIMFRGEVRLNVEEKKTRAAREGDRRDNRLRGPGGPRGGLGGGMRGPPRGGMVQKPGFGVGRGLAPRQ
T1 sequence (Q13283 whole entry): as above
Description: LLPS assays were performed in 30 μl total volume at 25°C at pH 7.4 in buffer containing 37 mM Tris, pH 7.5, 116 mM NaCl, 0.33% NP-40, 2.6% glycerol, 0.5 mM DTT with 20 ng/μl total cellular RNA from U2OS cells and 1.425 μM G3BP1, 0.075 μM FLAG-GFP-G3BP1, and 1.5 μM caprin 1. Reactions were initiated by adding G3BP1/caprin 1 protein mix to cellular RNA, followed by 3 min of shaking at 450 rpm and then incubation for 70 min in the dark. For condensates formed with G3BP1 and RNA, 20 μM purified G3BP1 and 100 ng of total cellular RNA from HEK293T cells were added to a buffer consisting of 100 mM NaCl and 16.7 mM HEPES (pH 7.5) in the presence of the indicated dose of G3Ib or vehicle control.

U2OS cells = assay: Cytotoxicity assay (CellTiter-Glo, ATP levels); assay type: cell-based; details: 24 h, ATP levels by luciferase signal
Description: U2OS (HTB-96), HEK293T (CRL-3216), and HeLa (CCL-2) cells were originally purchased from ATCC and periodically authenticated by short tandem repeat (STR) profiling. Cells were grown in Dulbecco’s modified Eagle’s medium (DMEM) supplemented with 10% fetal bovine serum (FBS), 1% penicillin/streptomycin, and 1% L-glutamine. Cells were counted using ADAM-CellT (NanoEntek), plated, and transfected using either Lipofectamine 3000 (L3000008; Thermo Fisher Scientific) or Viafect (E4981; Promega) for transient overexpression according to the manufacturer’s instructions. Cytotoxicity was assayed using CellTiter-Glo 2.0 reagent (Promega) according to the manufacturer’s instructions.

[2] = test system: stress granule formation in HeLa cells stably expressing G3BP1-GFP; assay: Preincubation, arsenite-induced stress granule formation, live cell imaging in HeLa; assay type: cell-based; details: Homo sapiens, 20 min pretreatment, 250 μM NaAsO2, read-out: inhibition of stress granule formation compared with inactive enantiomer
Description: (§1) For preincubation of compounds, U2OS or HeLa cells stably expressing G3BP1-GFP or CRISPR-modified cells expressing TDP-43-GFP/G3BP1-GFP were seeded into eight-well Lab-Tek chambered cover glass (Nunc). At least 20 min prior to the experiment, 1 ml FluoroBrite DMEM media (Gibco) supplemented with 10% FBS and 4 mM L-glutamine was combined with 0.1% DMSO or G3I compound (5, 10, or 50 μM). This solution was vortexed for 5 s, added to the cells at 250 μl per well, and left to incubate on the microscope for 20 min. Conditions were maintained at 37°C and 5% CO2 using a Bold Line Cage Incubator (Okolab) and an objective heater (Bioptechs). During this incubation time, 5 xy fields were stored per condition, with each field having ∼20–30 cells within it. After the 20-min incubation, 250 μl of 500 μM or 1 mM (2×) sodium arsenite (Sigma-Aldrich) diluted in the FluoroBrite media with an appropriate amount of G3I compound or DMSO was added to the sample. Imaging began immediately after, with images at each xy field being taken every 1 min. For heat shock experiments, U2OS G3BP1-GFP-expressing cells were seeded into a 35-mm glass bottom dish (MatTek). Prior to the experiment, 1.5 ml FluoroBrite DMEM media (Gibco) supplemented with 10% FBS and 4 mM L-glutamine was combined with 0.1% DMSO or 50 μM G3I compound. The sample was incubated on the environmentally controlled microscope for 20 min. […]

[3] = test system: stress granule formation in U2OS cells stably expressing G3BP1-GFP; assay: Preincubation, heat shock-induced stress granule formation in U2OS; assay type: cell-based; details: 50 μM, 20 min pretreatment, 43°C heat shock, 15 min post heat shock
Description: as §1

CC(NC(=O)C(NC(=O)C(NC(=O)CCC(C)(C)C)C(C)(C)O)C(C)c1ccccc1)C(=O)N1CCCC1c1ccccc1 (stereo not drawn) [G3Ib]
IC50, inhibition of G3BP1-GFP in vitro phase separation [1]: Unstable | LogIC50, inhibition of G3BP1-GFP in vitro phase separation [1]: 0.5379 | LogIC50, inhibition of G3BP1-GFP in vitro phase separation ([1]; listed as G3Ib'): Unstable | pIC50 [1]: 5.46 | co-condensation of caprin 1, G3BP1, and RNA [1]: disrupted the co-condensation | HillSlope, inhibition of G3BP1-GFP in vitro phase separation [1]: 1.004 | HillSlope, inhibition of G3BP1-GFP in vitro phase separation ([1]; listed as G3Ib'): Unstable | Bottom (lowest value of curve), percent inhibition of in vitro phase separation [1]: 4.401 | Top (highest value of curve), percent inhibition of in vitro phase separation [1]: 1.518 | cell-based toxicity (U2OS cells): do not appear to induce cellular toxicity or growth phenotypes | inhibition at 50 µM [2]: ~82% | reduction of stress granule formation compared with inactive enantiomer [3]: ~82%

COCCC(NC(=O)C(C)NC(=O)C(NC(=O)C(NC(=O)C(F)CC(C)(C)C)C(C)(C)O)C(C)c1ccccc1)C(=O)N(C)Cc1ccccc1 (stereo not drawn) [G3Ia]
IC50, inhibition of G3BP1-GFP in vitro phase separation [1]: Unstable | LogIC50, inhibition of G3BP1-GFP in vitro phase separation [1]: 0.6508 | LogIC50, inhibition of G3BP1-GFP in vitro phase separation ([1]; listed as G3Ia'): Unstable | pIC50 [1]: 5.35 | co-condensation of caprin 1, G3BP1, and RNA [1]: disrupted the co-condensation | HillSlope, inhibition of G3BP1-GFP in vitro phase separation [1]: 1.354 | HillSlope, inhibition of G3BP1-GFP in vitro phase separation ([1]; listed as G3Ia'): Unstable | Bottom (lowest value of curve), percent inhibition of in vitro phase separation [1]: Unstable | Top (highest value of curve), percent inhibition of in vitro phase separation [1]: Unstable | cell-based toxicity (U2OS cells): do not appear to induce cellular toxicity or growth phenotypes | inhibition at 50 µM [2]: ~72% | reduction of stress granule formation compared with inactive enantiomer [3]: ~79%
